Structures can show the parent of a compound that is named as a salt.

The assay deals with T1, human neutrophil elastase (Homo sapiens, UniProt P08246).
T1 sequence (P08246 30-267): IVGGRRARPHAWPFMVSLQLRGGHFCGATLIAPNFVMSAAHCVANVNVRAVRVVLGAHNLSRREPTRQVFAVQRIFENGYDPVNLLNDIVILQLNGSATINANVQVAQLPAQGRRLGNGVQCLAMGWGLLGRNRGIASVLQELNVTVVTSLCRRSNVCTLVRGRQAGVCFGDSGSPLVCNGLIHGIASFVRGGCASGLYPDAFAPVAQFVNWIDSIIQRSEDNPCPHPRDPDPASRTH
Put plainly: In vitro assay of human neutrophil elastase (HNE). The following applies: 118 nM purified human neutrophil elastase, pH 8.6, 15 min incubation at 30° C., MeO-succinyl-alanyl-alanyl-prolyl-valyl-p-nitroanilide substrate; read-out: HNE IC50. The assay is classed as biochemical. The gist of the method: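 Residual activity was taken as the 10 min rate of absorbance rise at 405 nm after adding 0.6 mM MeO-succinyl-AAPV-p-nitroanilide. Curve fitting of activity against concentration gave IC50.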
Broadly, the IC50 is the midpoint of a concentration-inhibition curve. With `CCC[C@H]1C(=O)N(S(C)(=O)=O)[C@H]2CCN(C(=O)c3ccc(NC(C)=O)cc3)[C@H]12` (relative stereo) [Example 120, rel-N-[4-(4-Methanesulfonyl-5-oxo-6R-propyl-hexahydro-(3aS,6aR)-pyrrolo[3,2-b]pyrrole-1-carbonyl)-phenyl]-acetamide], the IC50 came out at 42 nM.

For the molecule `CCC[C@H]1C(=O)N(S(C)(=O)=O)[C@H]2CCN(S(=O)(=O)c3ccc(C(=O)NCCN4CCCCC4)cc3)[C@H]12` (relative stereo) [Example 121, rel-4-(4-Methanesulfonyl-5-oxo-6R-propyl-hexahydro-(3aS,6aR)-pyrrolo[3,2-b]pyrrole-1-sulfonyl)-N-(2-piperidin-1-yl-ethyl)-benzamide hydrochloride], the IC50 worked out at 14 nM. The value for `CCC[C@H]1C(=O)N(S(C)(=O)=O)[C@H]2CCN(S(=O)(=O)c3ccc(C(=O)O)cc3)[C@@H]12` (relative stereo) [Example 122, rel-(3aS,6R,6aS)-4-(4-Methanesulfonyl-5-oxo-6-propyl-hexahydro-pyrrolo[3,2-b]pyrrole-1-sulfonyl)-benzoic acid] was 4 nM; that for `CCC[C@H]1C(=O)N(S(C)(=O)=O)[C@H]2CCN(S(=O)(=O)c3ccc(C(=O)NCCN(C)C)cc3)[C@H]12` (relative stereo) [Example 123, rel-N-(2-Dimethylamino-ethyl)-4-(4-methanesulfonyl-5-oxo-6R-propyl-hexahydro-(3aS,6aR)-pyrrolo[3,2-b]pyrrole-1-sulfonyl)-benzamide hydrochloride] was 14 nM. Regarding `CCC[C@H]1C(=O)N(S(C)(=O)=O)[C@H]2CCN(S(=O)(=O)c3ccc(C(=O)NC)cc3)[C@H]12` (relative stereo) [Example 124, rel-(3aS,6R,6aR)-4-(4-Methanesulfonyl-5-oxo-6-hexahydro-pyrrolo[3,2-b]pyrrole-1-sulfonyl)-N-methyl-benzamide], the IC50 turned out to be 8 nM. In the case of `CCC[C@H]1C(=O)N(S(C)(=O)=O)[C@H]2CCN(S(=O)(=O)c3ccc(C(=O)NC4CC4)cc3)[C@H]12` (relative stereo) [Example 125, rel-N-Cyclopropyl-4-(4-methanesulfonyl-5-oxo-6R-propyl-hexahydro-(3aS,6aR)-pyrrolo[3,2-b]pyrrole-1-sulfonyl)-benzamide], the half-maximal inhibitory concentration (IC50) was 13 nM. On to `CCC[C@H]1C(=O)N(S(C)(=O)=O)[C@H]2CCN(S(=O)(=O)c3ccc(C(=O)N(C)C)cc3)[C@H]12` (relative stereo) [Example 126, rel-4-(4-Methanesulfonyl-5-oxo-6R-propyl-hexahydro-(3aS,6aR)-pyrrolo[3,2-b]pyrrole-1-sulfonyl)-N,N-dimethyl-benzamide], for which the IC50 was determined as 10 nM. The value for `CCC[C@H]1C(=O)N(S(C)(=O)=O)[C@H]2CCN(S(=O)(=O)c3ccc(C(=O)N4CCN(C)CC4)cc3)[C@H]12` (relative stereo) [Example 127, rel-(3R,3aR,6aS)-1-Methanesulfonyl-4-[4-(4-methyl-piperazine-1-carbonyl)-benzenesulfonyl]-3-propyl-hexahydro-pyrrolo[3,2-b]pyrrol-2-one hydrochloride] was 40 nM; that for `CCC[C@H]1C(=O)N(S(C)(=O)=O)[C@H]2CCN(C(=O)/C=C/C(=O)OCC)[C@H]12` (relative stereo) [Example 128, rel-(3R,3aR,6aS)-4-(4-Methanesulfonyl-5-oxo-6-propyl-hexahydro-pyrrolo[3,2-b]pyrrole-1-yl)-4-oxo-but-2E-enoic acid ethyl ester] was 30 nM.

For the molecule `CCC[C@H]1C(=O)N(S(C)(=O)=O)[C@H]2CCN(C(=O)/C=C/C(=O)O)[C@H]12` (relative stereo) [Example 129, rel-4-(4-Methanesulfonyl-5-oxo-6R-propyl-hexahydro-(3aS,6aR)-pyrrolo[3,2-b]pyrrol-1-yl)-oxo-but-2-E-enoic acid], the IC50 amounted to 14 nM.

As to `CCC[C@H]1C(=O)N(S(C)(=O)=O)[C@H]2CCN(C(=O)/C=C/C(=O)N3CCN(C)CC3)[C@H]12` (relative stereo) [Example 130, rel-(3R,3aR,6aS)-1-(4-Methanesulfonyl-5-oxo-6-propyl-hexahydro-pyrrolo[3,2-b]pyrrol-1-yl)-4-(4-methyl-piperazin-1-yl)-but-2E-ene-1,4-dione hydrochloride], the IC50 stood at 47 nM.

For the molecule `C/C=C/C(=O)N1CC[C@H]2[C@H]1[C@@H](CCC)C(=O)N2S(C)(=O)=O` (relative stereo) [Example 131, rel-(3R,3aR,6aS)-4-But-2E-enoyl-1-methanesulfonyl-3-propyl-hexahydro-pyrrolo[3,2-b]pyrrol-2-one], the IC50 is 102 nM.

As for `CCC[C@H]1C(=O)N(S(C)(=O)=O)[C@H]2CCN(C(=O)/C=C/c3ccc(CN4CCN(C)CC4)cc3)[C@H]12` (relative stereo) [Example 132, rel-(3R,3aR,6aS)-1-Methanesulfonyl-4-{3-(4-(4-methyl-piperazin-1-ylmethy)-phenyl-(E)-acryloyl}-3-propyl-hexahydro-pyrrolo[3,2-b]pyrrol-2-one dihydrochloride], the IC50 is 83 nM. The value for `CCC[C@H]1C(=O)N(S(C)(=O)=O)[C@H]2CCN(C(=O)/C=C/c3ccc(CN4CCCCC4)cc3)[C@H]12` (relative stereo) [Example 133, rel-(3R,3aR,6aS)-1-Methanesulfonyl-4-[3-(4-piperidin-1-ylmethyl-phenyl)-(E)-acryloyl]-3-propyl-hexahydro-pyrrolo[3,2-b]pyrrol-2-one hydrochloride] was 61 nM. The value for `CCC[C@H]1C(=O)N(S(C)(=O)=O)[C@H]2CCN(C(=O)/C=C/c3ccc(NC(C)=O)cc3)[C@H]12` (relative stereo) [Example 134, rel-N-{4-[3-(4-Methanesulfonyl-5-oxo-6R-propyl-hexahydro-(3aS,6aR)-pyrrolo[3,2-b]pyrrol-1-yl)-3-oxo-(E)-propenyl]-phenyl}acetamide] was 23 nM; that for `CO[C@H]1C(=O)N(S(C)(=O)=O)[C@H]2CCN(C(=O)OCc3ccccc3)[C@H]12` (relative stereo) [Example 156, rel-(3aS,6R,6aS)-4-Methanesulfonyl-6-methoxy-5-oxo-hexahydro-pyrrolo[3,2-b]pyrrole-1-carboxylic acid benzyl ester] was 160 nM. Take `CS[C@H]1C(=O)N(S(C)(=O)=O)[C@H]2CCN(C(=O)OCc3ccccc3)[C@H]12` (relative stereo) [Example 157]: the IC50 came out at 209 nM.

On to `CCC[C@H]1C(=O)N(S(=O)(=O)CC)[C@H]2CCN(C(=O)CCN3CCCCC3)[C@H]12` (relative stereo) [Example 160, rel-(3R,3aR,6aS)-1-Ethanesulfonyl-4-(3-piperidin-1-yl-propionyl)-3-propyl-hexahydro-pyrrolo[3,2-b]pyrrol-2-one DL-tartrate], for which the IC50 was found to be 119 nM. Regarding `CCC[C@H]1C(=O)N(S(=O)(=O)C(C)C)[C@H]2CCN(C(=O)CCN3CCCCC3)[C@H]12` (relative stereo) [Example 161, rel-(3R,3aR,6aS)-4-(3Piperidin-1-yl-propionyl)-1-(propane-2-sulfonyl)-3-propyl-hexahydro-pyrrol[3,2-b]pyrrol-2-one DL-tartrate], the IC50 was 1030 nM.

`CCC[C@H]1C(=O)N(S(=O)(=O)CCC)[C@H]2CCN(C(=O)CCN3CCCCC3)[C@H]12` (relative stereo) [Example 162, rel-(3R,3aR,6aS)-4-(3-Piperidin-1-yl-propionyl)-1-(propane-1-sulfonyl)-3-propyl-hexahydro-pyrrolo[3,2-b]pyrrol-2-one DL-tartrate]: the IC50 stood at 62 nM.

Regarding `CCCCS(=O)(=O)N1C(=O)[C@H](CCC)[C@@H]2[C@@H]1CCN2C(=O)CCN1CCCCC1` (relative stereo) [Example 163, rel-(3R,3aR,6aS)-1-(Butane-1-sulfonyl)-4-(3-piperidin-1-yl-propionyl)-3-propyl-hexahydro-pyrrolo[3,2-b]pyrrol-2-one DL-tartrate], the IC50 amounted to 103 nM. For `CCC[C@H]1C(=O)N(S(=O)(=O)CC(F)(F)F)[C@H]2CCN(C(=O)CCN3CCCCC3)[C@H]12` (relative stereo) [Example 164, rel-(3R,3aR,6aS)-4-(3-Piperidin-1-yl-propionyl)-3-propyl-1-(2,2,2-trifluoro-ethanesulfonyl)-hexahydro-pyrrolo[3,2-b]pyrrol-2-one DL-tartrate], the IC50 came out at 413 nM. Take `CCC[C@H]1C(=O)N(S(=O)(=O)CC)[C@H]2CCN(S(=O)(=O)CCCN3CCCCC3)[C@H]12` (relative stereo) [Example 165, rel-(3R,3aR,6aS)-1-Ethanesulfonyl-4-(3-piperidin-1-yl-propane-1-sulfonyl)-3-propyl-hexahydro-pyrrolo[3,2-b]pyrrol-2-one DL-tartrate]: the IC50 came out at 86 nM. Take `CCC[C@H]1C(=O)N(S(=O)(=O)C(C)C)[C@H]2CCN(S(=O)(=O)CCCN3CCCCC3)[C@H]12` (relative stereo) [Example 166, rel-(3R,3aR,6aS)-4-(3-Piperidin-1-yl-propane-1-sulfonyl)-1-(propane-2-sulfonyl)-3-propyl-hexahydro-pyrrolo[3,2-b]pyrrol-2-one DL-tartrate]: the IC50 came to 287 nM. Turning to `CCCCS(=O)(=O)N1C(=O)[C@H](CCC)[C@@H]2[C@@H]1CCN2S(=O)(=O)CCCN1CCCCC1` (relative stereo) [Example 167, rel-(3R,3aR,6aS)-1-(Butane-1-sulfonyl)-4-(3-piperidin-1-yl-propane-1-sulfonyl)-3-propyl-hexahydro-pyrrolo[3,2-b]pyrrol-2-one DL-tartrate], the IC50 was 38 nM.

For the origin of these results see patent publication US6215002A, “Pyrrolopyrrolone derivatives as inhibitors of neutrophil elastase” (priority 1996, dated 2001).
